The values below come from patent publication US7728142B2, “3-methanesulfonylquinolines as GABAB enhancers” (Hoffmann-La Roche Inc., priority 2005, dated 2010).

Data set [1] concerns panic attacks and symptoms of anxiety. The note with it: panic disorder patients; Hamilton, Zung anxiety scales, Katz-R nervousness subscale; cited from earlier work.
The next data set concerns symptoms of PTSD. The note with it: small group of veterans with chronic, combat-related PTSD; cited from earlier work.
Another data set has as its system prepulse inhibition. The note with it: rat; cited from earlier work.
For data set [2] the following is noted: in vivo; cited from earlier work.
The conditions of data set [3]: PO, cited from earlier work.
The target in a further data set is GABABR1R2 (Homo sapiens, UniProt O75899+Q9UBS5). Particulars: absence of GABA; cited from earlier work.
Chain of GABABR1R2 (Q9UBS5 20-961): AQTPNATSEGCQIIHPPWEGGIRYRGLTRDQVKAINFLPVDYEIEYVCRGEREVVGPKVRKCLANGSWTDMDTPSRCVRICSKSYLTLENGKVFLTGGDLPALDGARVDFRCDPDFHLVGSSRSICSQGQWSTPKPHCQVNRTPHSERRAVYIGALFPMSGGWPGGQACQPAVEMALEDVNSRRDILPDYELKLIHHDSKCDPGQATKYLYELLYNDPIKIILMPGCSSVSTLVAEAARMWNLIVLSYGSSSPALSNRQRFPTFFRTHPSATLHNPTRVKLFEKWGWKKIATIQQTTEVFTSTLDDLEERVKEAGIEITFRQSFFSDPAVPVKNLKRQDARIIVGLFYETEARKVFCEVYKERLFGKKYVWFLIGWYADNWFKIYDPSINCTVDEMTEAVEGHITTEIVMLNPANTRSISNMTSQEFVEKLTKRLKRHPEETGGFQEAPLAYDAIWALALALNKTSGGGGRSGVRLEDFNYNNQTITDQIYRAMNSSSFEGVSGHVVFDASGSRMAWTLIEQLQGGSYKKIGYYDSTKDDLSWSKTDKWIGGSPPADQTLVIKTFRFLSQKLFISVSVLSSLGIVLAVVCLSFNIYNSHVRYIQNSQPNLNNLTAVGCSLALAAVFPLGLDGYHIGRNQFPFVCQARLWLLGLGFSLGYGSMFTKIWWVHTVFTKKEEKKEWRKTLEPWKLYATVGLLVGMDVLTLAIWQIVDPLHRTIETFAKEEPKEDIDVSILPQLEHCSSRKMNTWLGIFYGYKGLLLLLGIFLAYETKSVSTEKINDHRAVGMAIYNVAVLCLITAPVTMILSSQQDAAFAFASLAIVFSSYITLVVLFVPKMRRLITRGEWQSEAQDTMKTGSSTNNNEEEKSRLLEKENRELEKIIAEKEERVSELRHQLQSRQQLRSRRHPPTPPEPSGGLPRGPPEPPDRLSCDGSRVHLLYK
Chain of GABABR1R2 (O75899 42-941): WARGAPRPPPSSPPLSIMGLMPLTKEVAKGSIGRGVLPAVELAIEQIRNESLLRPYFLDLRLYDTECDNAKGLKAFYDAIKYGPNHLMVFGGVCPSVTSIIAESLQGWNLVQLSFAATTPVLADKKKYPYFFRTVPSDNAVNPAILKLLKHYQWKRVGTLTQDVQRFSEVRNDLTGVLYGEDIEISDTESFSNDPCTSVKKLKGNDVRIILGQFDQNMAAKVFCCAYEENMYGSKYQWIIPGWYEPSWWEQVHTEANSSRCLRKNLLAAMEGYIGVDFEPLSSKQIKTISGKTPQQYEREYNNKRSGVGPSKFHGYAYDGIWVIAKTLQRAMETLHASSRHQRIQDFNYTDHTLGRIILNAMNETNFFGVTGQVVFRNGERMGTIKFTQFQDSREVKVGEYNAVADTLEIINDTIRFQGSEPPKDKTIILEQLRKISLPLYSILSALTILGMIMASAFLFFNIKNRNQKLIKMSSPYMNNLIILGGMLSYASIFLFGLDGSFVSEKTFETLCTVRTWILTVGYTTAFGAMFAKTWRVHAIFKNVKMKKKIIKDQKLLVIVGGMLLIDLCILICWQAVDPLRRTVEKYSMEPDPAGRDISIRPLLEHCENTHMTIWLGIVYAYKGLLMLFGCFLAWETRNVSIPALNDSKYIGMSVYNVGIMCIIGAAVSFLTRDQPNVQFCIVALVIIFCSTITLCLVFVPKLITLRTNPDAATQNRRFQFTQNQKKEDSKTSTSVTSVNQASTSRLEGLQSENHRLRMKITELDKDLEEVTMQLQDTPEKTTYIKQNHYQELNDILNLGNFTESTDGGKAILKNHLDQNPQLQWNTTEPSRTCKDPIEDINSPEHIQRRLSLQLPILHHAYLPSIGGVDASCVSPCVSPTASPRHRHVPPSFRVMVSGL
Data set [4] relates to cocaine self-administration. The note with it: rats; cited from earlier work.
The test system of data set [5] is Gastro-Esophageal Reflux Disease. Particulars: preclinical; cited from earlier work.
For data set [6], the target named is T1, human GABABR1aR2a (Homo sapiens, UniProt O75899+Q9UBS5).
T1 construct: expressed in transfected cells
T1 sequence (Q9UBS5 15-961 limits assumed): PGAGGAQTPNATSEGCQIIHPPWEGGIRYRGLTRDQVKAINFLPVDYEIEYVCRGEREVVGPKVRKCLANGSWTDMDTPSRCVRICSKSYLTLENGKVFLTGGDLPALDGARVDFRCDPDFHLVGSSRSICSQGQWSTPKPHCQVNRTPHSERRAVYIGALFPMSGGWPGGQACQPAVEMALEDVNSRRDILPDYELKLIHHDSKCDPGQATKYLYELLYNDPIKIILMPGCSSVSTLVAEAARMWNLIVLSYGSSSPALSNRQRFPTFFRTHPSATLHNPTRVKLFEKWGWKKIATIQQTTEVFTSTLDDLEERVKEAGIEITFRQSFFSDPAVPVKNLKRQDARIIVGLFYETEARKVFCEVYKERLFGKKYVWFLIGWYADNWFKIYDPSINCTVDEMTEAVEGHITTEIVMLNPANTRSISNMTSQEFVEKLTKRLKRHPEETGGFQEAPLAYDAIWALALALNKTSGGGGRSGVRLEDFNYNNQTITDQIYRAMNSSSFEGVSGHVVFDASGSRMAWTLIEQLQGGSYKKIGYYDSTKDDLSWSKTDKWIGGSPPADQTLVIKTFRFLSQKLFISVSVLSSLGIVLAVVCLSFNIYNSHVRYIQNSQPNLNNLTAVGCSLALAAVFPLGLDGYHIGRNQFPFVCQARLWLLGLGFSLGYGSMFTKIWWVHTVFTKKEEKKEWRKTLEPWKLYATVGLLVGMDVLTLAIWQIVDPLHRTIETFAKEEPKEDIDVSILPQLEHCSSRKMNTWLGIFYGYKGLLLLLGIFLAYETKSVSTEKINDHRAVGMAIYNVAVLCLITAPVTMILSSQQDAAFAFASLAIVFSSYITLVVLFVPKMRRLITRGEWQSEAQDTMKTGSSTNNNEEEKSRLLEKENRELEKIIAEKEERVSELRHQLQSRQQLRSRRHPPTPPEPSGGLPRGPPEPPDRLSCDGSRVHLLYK
T1 sequence (O75899 42-941): as the sequence (O75899 42-941) above
Put plainly: Intracellular Ca2+ mobilization assay (FLIPR), enhancer concentration-response in presence of 10 nM GABA. The note with it: CHO-GABABR1aR2a-Gα16 cell; for Emax: enhancer 0.001-30 μM in presence of 10 nM GABA (EC10), read-out: Emax (%) at 10 nM GABA alone = 0% 10 μM GABA alone = 100%; for EC50: in presence of 10 nM GABA (EC10). The format is cell-based. As for the experimental part: (§1) Intracellular Ca^2+ Mobilization Assay
(§2) Chinese Hamster Ovary (CHO) cells stably expressing human GABABR1aR2a and Gα16 were seeded at 5×10^4 cells/well in the poly-D-lysine treated, 96-well, black/clear-bottomed plates (BD Biosciences, Palo Alto, Calif.). 24 h later, the cells were loaded for 90 min at 37° C. with 4 μM Flou-4 acetoxymethyl ester (Catalog No. F-14202, Molecular Probes, Eugene, Oreg.) in loading buffer (1×HBSS, 20 mM HEPES, 2.5 mM Probenecid). Hanks' Balanced Salt Solution (HBSS) (10×) (catalog No. 14065-049) and HEPES (1M) (catalog No. 15630-056) were purchased from Invitrogen, Carlsbad, Calif. Probenecid (250 mM) (catalog No. P8761) was from Sigma, Buchs, Switzerland. The cells were washed five times with loading buffer to remove excess dye and intracellular calcium mobilization, [Ca^2+] was measured using a Fluorometric Imaging Plate Reader (FLIPR, Molecular Devices, Menlo Park, Calif.) as described previously (Porter et al., Br. J. Pharmacol., 128, 13-20, 1999). The enhancers were applied 15 min before the application of the GABA. For GABA shift assay, concentration-response curves of GABA (0.0003-30 μM) were determined in the absence and presence of 10 μM enhancer. The GABA-shift is defined as Log [EC50 (GABA+10 μM enhancer)/EC50 (GABA alone)]. The % maximum enhancing effect (% Emax) and potency (EC50 value) of each enhancer was determined from concentration-response curve of the enhancer (0.001-30 μM) in the presence of 10 nM GABA (EC10). Responses were measured as peak increase in fluorescence minus basal, normalized to the maximal stimulatory effect induced by 10 μM GABA alone (considered 100%) and 10 nM GABA alone (considered 0%). The data were fitted with the equation Y=100+(Max−100)/(1+(EC50/[drug])^n) where Max is the maximum effect, EC50 the concentration eliciting a half-maximum effect and n the Hill slope.
For orientation: Calcium flux is commonly read through the fluorescence of an indicator in the cells.

The target in data set [7] is T1, human GABABR1aR2a. Put plainly: GABA shift assay (Ca2+ mobilization, GABA curves with and without 10 μM enhancer). The data set is classed as cell-based. The note with it: CHO-GABABR1aR2a-Gα16 cell. The procedure: as §1, §2
The subject of data set [8] is anxiety. Particulars: cited from earlier work.
The test system of a further data set is cognition performance. Particulars: passive avoidance, mice and rats; cited from earlier work.
For data set [9], the system named is anxiety. The note with it: elevated plus maze (rat), elevated zero maze (mice and rats), stress-induced hyperthermia (mice); cited from earlier work.

Like-named read-outs stand apart in the source and are kept apart here.

Take `NCC(CC(=O)O)c1ccc(Cl)cc1` (stereo not drawn) [Baclofen, β-chlorophenyl GABA]: the “reduction of number of panic attacks and symptoms of anxiety” value in data set [1] is reported as “significantly effective”. The “treatment of PTSD” value in the data set on symptoms of PTSD is “effective and well-tolerated treatment”. For the same molecule, the “reversal of reduction in prepulse inhibition induced by dizocilpine” value with prepulse inhibition is listed as “able to reverse the reduction in prepulse inhibition”. Besides, the blood-brain-barrier penetration entry in data set [2] is “poor blood-brain-barrier penetration”. Further, the “effect on spontaneous locomotor activity, rotarod, body temperature and traction test” value in [3] (2.5-15 mg/kg) is on record as “showed these side effects”.
`CC(C)(CO)Cc1cc(C(C)(C)C)c(O)c(C(C)(C)C)c1` [CGP7930, 2,6-di-tert-butyl-4-(3-hydroxy-2,2-dimethyl-propyl)-phenol]: the “effect on their own at GABAB receptors” value at GABABR1R2 is “no effect on their own”. The “decrease of cocaine self-administration” value in data set [4] is given as “effective at decreasing cocaine self-administration”. Also, in data set [5], the “efficacy in GERD” value is listed as “found to be effective”.
As to `CC(C)(C=O)Cc1cc(C(C)(C)C)c(O)c(C(C)(C)C)c1` [CGP13501], the “effect on their own at GABAB receptors” value on GABABR1R2 was “no effect on their own”.
In general, Emax refers to the maximal effect, on the per cent scale that the assay sets. The EC50 is the concentration that produces a half-maximal response. As for `Cc1nc2ccc(OC(F)(F)F)cc2c(-c2ccccc2)c1S(C)(=O)=O` [Example 1, 3-Methanesulfonyl-2-methyl-4-phenyl-6-trifluoromethoxy-quinoline], at human GABABR1aR2a [6], the Emax came out at 56% and the EC50 is 0.85 µM. The “GABA shift Log [EC50(GABA + 10 μM cp)/EC50(GABA alone)]” value (“GABA shift Log” for short) on human GABABR1aR2a [7] is −0.7.
For `Cc1nc2ccc(I)cc2c(N2CCOCC2)c1S(C)(=O)=O` [Example 5, 6-Iodo-3-methanesulfonyl-2-methyl-4-morpholin-4-yl-quinoline], in that order: 30%, 2.1 µM and −0.4.
For `Cc1nc2ccc(I)cc2c(N2CCCCC2)c1S(C)(=O)=O` [Example 9, 6-Iodo-3-methanesulfonyl-2-methyl-4-piperidin-1-yl-quinoline], at human GABABR1aR2a [6], the Emax was determined as 48% and the EC50 amounted to 0.6 µM. Also, the “GABA shift Log” value at human GABABR1aR2a [7] is reported as −1.2.
As to `Cc1nc2ccc(I)cc2c(N2CCC[C@@H](O)C2)c1S(C)(=O)=O` [Example 11, (R)-1-(6-Iodo-3-methanesulfonyl-2-methyl-quinolin-4-yl)-piperidin-3-ol], at human GABABR1aR2a [6], the maximum response (Emax) was 26% and the half-maximal effective concentration (EC50) is 0.8 µM. Further, at human GABABR1aR2a [7], the “GABA shift Log” value is given as −0.8.
Take `Cc1nc2ccc(Br)cc2c(-c2ccc(F)cc2)c1S(C)(=O)=O` [Example 14, 6-Bromo-4-(4-fluoro-phenyl)-3-methanesulfonyl-2-methyl-quinoline]: at human GABABR1aR2a [6], the Emax stood at 37% and the EC50 amounted to 2.1 µM. Moreover, the “GABA shift Log” value at human GABABR1aR2a [7] is recorded as −0.45.
Regarding `CSc1nc(NC2CCCC2)c([N+](=O)[O-])c(NC2CCCC2)n1` [GS39783, N,N_-dicyclopentyl-2-methylsulfanyl-5-nitro-pyrimidine-4,6-diamine], the “tolerance after chronic treatment” value in the data set on anxiety [8] (21 days, 10 mg/kg, P.O., once daily) is recorded as “No tolerance”. In the data set on anxiety [8] (acute and chronic treatment), the “anxiolytic effects in light-dark box and elevated zero maze” value was “anxiolytic effects”. Further, the “effect on spontaneous locomotor activity, rotarod, body temperature and traction test” value in data set [3] (0.1-200 mg/kg) was “had no effect”. The “effect on cognition performance” value in the data set on cognition performance was “did not have any effect”. In addition, in the data set on anxiety [9], the anxiolytic-like effects result is on record as “exhibited anxiolytic-like effects”. In addition, the “decrease of cocaine self-administration” value in [4] is recorded as “effective at decreasing cocaine self-administration”.
